Experiments:
C57BL/6 mice = experiment: Bone growth study in mice, daily i.p. for 30 days; serum osteocalcin by EIA Elisa; assay type: in vivo; conditions: four month old male C57BL/6 mice
Description: Four month old male C57BL/6 mice were treated daily with saline vehicle or sclerostin inhibitors at low, mid, or high doses (via i.p) for 30 days. Study endpoints included a biochemical marker of bone formation, osteocalcin measured by EIA Elisa, and measurement of trabecular bone volume by mico-CT analysis on both the proximal tibia and L5 vertebra.

SOST (Sclerostin) = experiment: Assay for identification of SOST antagonists promoting bone growth (J Bone Miner Res 2006, 21(11), 1738-1749)
Excerpt: Compounds useful in the methods of the present invention can be identified via a variety of methods known to one of skill in the art. Several exemplary methods for identifying such antagonists are described herein, including cell-based and in vitro techniques (Journal of Bone and Mineral Research 2006, 21(11), 1738-1749). A general method of identifying SOST antagonists involves evaluating the effects of antagonist candidates on bone formation under controlled conditions. Preferably bone formation is determined using micro-CT techniques on live animals. Preferred animals include rodents, more preferred are primates. Femur, tibia and vertebrae bones are particularly useful subjects for such study.
Briefly, the test animal is treated with a predetermined dose of a SOST antagonist candidate. A control animal is treated with a control solution, preferably a non-irritating buffer solution or other carrier.
Once the dosing schedule has been completed, both test and control animals are examined to determine the quantity of bone formation present. This can be accomplished by any suitable method, but is preferably performed on live animals to analyze the bone mineral content. Methods for micro-CT examination of bones in animals are well known in the art. […] Where necessary, levels of bone formation can be calculated by determining the volume of bone formation present in each animal. […]

In the case of `O=c1[nH]nc(SCCO)c(=O)[nH]1` [OGX-21], the “percent increase in serum osteocalcin over baseline” value (C57BL/6 mice; 10 mg/kg (A)) is reported as 2%, the “percent increase in serum osteocalcin over baseline” value (C57BL/6 mice; 20 mg/kg (B)) is reported as 28% and the “percent increase in serum osteocalcin over baseline” value (C57BL/6 mice; 30 mg/kg (C)) is reported as 15%. The “modulation of the Wnt pathway” value (SOST (Sclerostin); FIG. 1) was “modulating the Wnt pathway” and the “promotion of bone growth” value (SOST (Sclerostin); identification assay) was “promoting bone growth”.

— US20090258052A1, “COMPOUNDS AND METHODS FOR ALTERING BONE GROWTH” (OsteoGeneX Inc., priority 2008, published 2009)
